Test results taken from patent publication US9012651B2, “TRPV3 modulators” (AbbVie Inc., priority 2011, dated 2015).

These compounds were tested against human TRPV3 receptors (Homo sapiens (Human), UniProt Q8NET8) (assay: Calcium flux assay (FLIPR TETRA), inhibition of the 2-APB response). Conditions: recombinant HEK293 cells stably expressing TRPV3, Calcium-4 dye, 2-APB at its EC80.
Assay type: cell-based
Method in brief: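 Responses are given relative to the maximal 2-APB signal in the absence of compound, using peak fluorescence over baseline. Measured by FLIPR Tetra calcium flux in stable human and mouse TRPV3 HEK293 cells after 90-120 min dark dye incubation.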

Chain of human TRPV3 receptors (Q8NET8 whole entry): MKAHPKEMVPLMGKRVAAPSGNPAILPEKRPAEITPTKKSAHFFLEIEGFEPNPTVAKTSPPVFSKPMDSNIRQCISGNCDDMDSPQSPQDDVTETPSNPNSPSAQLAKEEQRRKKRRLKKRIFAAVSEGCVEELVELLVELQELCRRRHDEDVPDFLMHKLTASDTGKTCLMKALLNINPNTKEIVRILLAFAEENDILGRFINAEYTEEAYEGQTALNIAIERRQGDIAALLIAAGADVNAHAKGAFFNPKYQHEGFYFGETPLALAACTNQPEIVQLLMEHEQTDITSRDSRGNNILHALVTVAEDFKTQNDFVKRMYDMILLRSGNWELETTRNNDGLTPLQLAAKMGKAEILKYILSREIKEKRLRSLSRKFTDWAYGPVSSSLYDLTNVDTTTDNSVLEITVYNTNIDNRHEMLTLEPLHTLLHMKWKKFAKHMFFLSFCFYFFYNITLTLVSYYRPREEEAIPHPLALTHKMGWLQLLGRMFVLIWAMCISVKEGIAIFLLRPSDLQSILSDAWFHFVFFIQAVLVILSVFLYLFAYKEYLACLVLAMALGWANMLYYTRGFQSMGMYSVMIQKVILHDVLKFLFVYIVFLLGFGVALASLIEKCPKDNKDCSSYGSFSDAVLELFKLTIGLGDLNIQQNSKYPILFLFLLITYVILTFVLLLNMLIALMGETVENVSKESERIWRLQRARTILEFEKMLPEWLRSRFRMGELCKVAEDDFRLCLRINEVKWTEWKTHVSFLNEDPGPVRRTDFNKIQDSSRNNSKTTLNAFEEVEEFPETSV

SMILES	IC50
O[C@H]1CCCC[C@@H]1NCc1nc(-c2ccc(C(F)(F)F)nc2)ccc1F [Example 122, (1S,2S)-2-({[5-fluoro-6′-(trifluoromethyl)-2,3′-bipyridin-6-yl]methyl}amino)cyclohexanol]	3.94 µM
O[C@@H]1CCCC[C@@H]1NCc1nc(-c2ccc(C(F)(F)F)nc2)ccc1F [Example 123, (1R,2S)-2-({[5-fluoro-6′-(trifluoromethyl)-2,3′-bipyridin-6-yl]methyl}amino)cyclohexanol]	8.55 µM
C=C(c1ccccc1)c1ccc(F)c(CN[C@@H](CO)C(C)C)n1 [Example 124, (2R)-2-({[3-fluoro-6-(1-phenylethenyl)pyridin-2-yl]methyl}amino)-3-methylbutan-1-ol]	0.92 µM
C=C(c1ccc(F)cc1)c1ccc(F)c(CN[C@@H](CO)C(C)C)n1 [Example 125, (2R)-2-[({3-fluoro-6-[1-(4-fluorophenyl)ethenyl]pyridin-2-yl}methyl)amino]-3-methylbutan-1-ol]	1.63 µM
CC(C)[C@H](CO)NCc1nc(C2=CCCCC2)ccc1F [Example 126, (2R)-2-({[6-(cyclohex-1-en-1-yl)-3-fluoropyridin-2-yl]methyl}amino)-3-methylbutan-1-ol]	0.74 µM
CC(c1ccccc1)c1ccc(F)c(CN[C@@H](CO)C(C)C)n1 (stereo partly drawn) [Example 127, (2R)-2-({[3-fluoro-6-(1-phenylethyl)pyridin-2-yl]methyl}amino)-3-methylbutan-1-ol]	1.44 µM
CC(c1ccc(F)cc1)c1ccc(F)c(CN[C@@H](CO)C(C)C)n1 (stereo partly drawn) [Example 128, (2R)-2-[({3-fluoro-6-[1-(4-fluorophenyl)ethyl]pyridin-2-yl}methyl)amino]-3-methylbutan-1-ol]	0.48 µM
C[C@@H](O)[C@H](NCc1nc(-c2ccc(C(F)(F)F)nc2)ccc1F)C(=O)Nc1ccc2ccccc2c1 [Example 130, N^2-{[5-fluoro-6′-(trifluoromethyl)-2,3′-bipyridin-6-yl]methyl}-N-naphthalen-2-yl-L-threoninamide]	2.55 µM
CC(C)[C@H](CO)NCc1nc(-c2ccc(C(F)(F)F)cc2)ncc1F [Example 131, (2R)-2-[({5-fluoro-2-[4-(trifluoromethyl)phenyl]pyrimidin-4-yl}methyl)amino]-3-methylbutan-1-ol]	0.46 µM
OCC1(NCc2ccnc(-c3ccc(C(F)(F)F)cc3)n2)CCC1 [Example 132, {1-[({2-[4-(trifluoromethyl)phenyl]pyrimidin-4-yl}methyl)amino]cyclobutyl}methanol]	> 20 µM
OCC1(NCc2ccnc(-c3ccc(C(F)(F)F)cc3)n2)CCCC1 [Example 133, {1-[({2-[4-(trifluoromethyl)phenyl]pyrimidin-4-yl}methyl)amino]cyclopentyl}methanol]	9.32 µM
OCC1(NCc2ccnc(-c3ccc(C(F)(F)F)cc3)n2)CCCCC1 [Example 134, {1-[({2-[4-(trifluoromethyl)phenyl]pyrimidin-4-yl}methyl)amino]cyclohexyl}methanol]	11 µM
OCC1(NCc2ccnc(-c3ccc(C(F)(F)F)cc3)n2)CC1 [Example 135, {1-[({2-[4-(trifluoromethyl)phenyl]pyrimidin-4-yl}methyl)amino]cyclopropyl}methanol]	> 20 µM
CC(C)(CO)NCc1ccnc(-c2ccc(C(F)(F)F)cc2)n1 [Example 136, 2-methyl-2-[({2-[4-(trifluoromethyl)phenyl]pyrimidin-4-yl}methyl)amino]propan-1-ol]	> 20 µM
C[C@H](CO)NCc1ccnc(-c2ccc(C(F)(F)F)cc2)n1 [Example 137, (2R)-2-[({2-[4-(trifluoromethyl)phenyl]pyrimidin-4-yl}methyl)amino]propan-1-ol]	7.83 µM
CC[C@H](CO)NCc1ccnc(-c2ccc(C(F)(F)F)cc2)n1 [Example 138, (2R)-2-[({2-[4-(trifluoromethyl)phenyl]pyrimidin-4-yl}methyl)amino]butan-1-ol]	3.05 µM
OC[C@H](NCc1ccnc(-c2ccc(C(F)(F)F)cc2)n1)c1ccccc1 [Example 139, (2R)-2-phenyl-2-[({2-[4-(trifluoromethyl)phenyl]pyrimidin-4-yl}methyl)amino]ethanol]	8.08 µM
OC[C@@H](Cc1ccccc1)NCc1ccnc(-c2ccc(C(F)(F)F)cc2)n1 [Example 140, (2R)-3-phenyl-2-[({2-[4-(trifluoromethyl)phenyl]pyrimidin-4-yl}methyl)amino]propan-1-ol]	> 20 µM
CCC[C@H](CO)NCc1ccnc(-c2ccc(C(F)(F)F)cc2)n1 [Example 141, (2R)-2-[({2-[4-(trifluoromethyl)phenyl]pyrimidin-4-yl}methyl)amino]pentan-1-ol]	4.9 µM
CC(C)C[C@H](CO)NCc1ccnc(-c2ccc(C(F)(F)F)cc2)n1 [Example 142, (2R)-4-methyl-2-[({2-[4-(trifluoromethyl)phenyl]pyrimidin-4-yl}methyl)amino]pentan-1-ol]	7.3 µM
CCC(C)C(CO)NCc1ccnc(-c2ccc(C(F)(F)F)cc2)n1 (centres unmarked) [Example 143, 3-methyl-2-[({2-[4-(trifluoromethyl)phenyl]pyrimidin-4-yl}methyl)amino]pentan-1-ol]	12.4 µM

SMILES	IC50
COCC(CO)NCc1ccnc(-c2ccc(C(F)(F)F)cc2)n1 (centres unmarked) [Example 144, 3-methoxy-2-[({2-[4-(trifluoromethyl)phenyl]pyrimidin-4-yl}methyl)amino]propan-1-ol]	15.6 µM
OC[C@H](NCc1ccnc(-c2ccc(C(F)(F)F)cc2)n1)C1CC1 [Example 145, (2R)-2-cyclopropyl-2-[({2-[4-(trifluoromethyl)phenyl]pyrimidin-4-yl}methyl)amino]ethanol]	3.05 µM
OC[C@H](NCc1ccnc(-c2ccc(C(F)(F)F)cc2)n1)C1CCCCC1 [Example 146, (2R)-2-cyclohexyl-2-[({2-[4-(trifluoromethyl)phenyl]pyrimidin-4-yl}methyl)amino]ethanol]	8.65 µM
CC(C)(C)[C@H](CO)NCc1ccnc(-c2ccc(C(F)(F)F)cc2)n1 [Example 147, (2R)-3,3-dimethyl-2-[({2-[4-(trifluoromethyl)phenyl]pyrimidin-4-yl}methyl)amino]butan-1-ol]	6.43 µM
CC(O)C(C)NCc1ccnc(-c2ccc(C(F)(F)F)cc2)n1 (centres unmarked) [Example 148, 3-[({2-[4-(trifluoromethyl)phenyl]pyrimidin-4-yl}methyl)amino]butan-2-ol]	1.87 µM
C[C@H](O)[C@H](CO)NCc1ccnc(-c2ccc(C(F)(F)F)cc2)n1 [Example 149, (2S,3S)-2-[({2-[4-(trifluoromethyl)phenyl]pyrimidin-4-yl}methyl)amino]butane-1,3-diol]	> 20 µM
C[C@@H](O)[C@@H](CO)NCc1ccnc(-c2ccc(C(F)(F)F)cc2)n1 [Example 150, (2R,3R)-2-[({2-[4-(trifluoromethyl)phenyl]pyrimidin-4-yl}methyl)amino]butane-1,3-diol]	3.82 µM
C[C@H](O)[C@@H](CO)NCc1ccnc(-c2ccc(C(F)(F)F)cc2)n1 [Example 151, (2R,3S)-2-[({2-[4-(trifluoromethyl)phenyl]pyrimidin-4-yl}methyl)amino]butane-1,3-diol]	> 20 µM
C[C@@H](O)[C@H](CO)NCc1ccnc(-c2ccc(C(F)(F)F)cc2)n1 [Example 152, (2S,3R)-2-[({2-[4-(trifluoromethyl)phenyl]pyrimidin-4-yl}methyl)amino]butane-1,3-diol]	> 20 µM
OC[C@H](NCc1ccnc(-c2ccc(C(F)(F)F)cc2)n1)[C@@H](O)c1ccccc1 [Example 153, (1S,2S)-1-phenyl-2-[({2-[4-(trifluoromethyl)phenyl]pyrimidin-4-yl}methyl)amino]propane-1,3-diol]	9.31 µM
OC[C@@H](NCc1ccnc(-c2ccc(C(F)(F)F)cc2)n1)[C@H](O)c1ccccc1 [Example 154, (1R,2R)-1-phenyl-2-[({2-[4-(trifluoromethyl)phenyl]pyrimidin-4-yl}methyl)amino]propane-1,3-diol]	> 20 µM
CC(C)[C@@H](CO)NCc1ccnc(-c2ccc(C(F)(F)F)cc2)n1 [Example 155, (2S)-3-methyl-2-[({2-[4-(trifluoromethyl)phenyl]pyrimidin-4-yl}methyl)amino]butan-1-ol]	> 20 µM
CC(C)(CO)CNCc1ccnc(-c2ccc(C(F)(F)F)cc2)n1 [Example 156, 2,2-dimethyl-3-[({2-[4-(trifluoromethyl)phenyl]pyrimidin-4-yl}methyl)amino]propan-1-ol]	> 20 µM
OCC1(CNCc2ccnc(-c3ccc(C(F)(F)F)cc3)n2)CCC1 [Example 157, (1-{[({2-[4-(trifluoromethyl)phenyl]pyrimidin-4-yl}methyl)amino]methyl}cyclobutyl)methanol]	> 20 µM
OCC1(CNCc2ccnc(-c3ccc(C(F)(F)F)cc3)n2)CCCC1 [Example 158, (1-{[({2-[4-(trifluoromethyl)phenyl]pyrimidin-4-yl}methyl)amino]methyl}cyclopentyl)methanol]	> 20 µM
OCC1(CNCc2ccnc(-c3ccc(C(F)(F)F)cc3)n2)CCCCC1 [Example 159, (1-{[({2-[4-(trifluoromethyl)phenyl]pyrimidin-4-yl}methyl)amino]methyl}cyclohexyl)methanol]	17.6 µM
OCC1(CNCc2ccnc(-c3ccc(C(F)(F)F)cc3)n2)COC1 [Example 160]	> 20 µM
OCC1(CNCc2ccnc(-c3ccc(C(F)(F)F)cc3)n2)CCOCC1 [Example 161]	> 20 µM
OCC[C@@H](NCc1ccnc(-c2ccc(C(F)(F)F)cc2)n1)c1ccccc1 [Example 162, (3R)-3-phenyl-3-[({2-[4-(trifluoromethyl)phenyl]pyrimidin-4-yl}methyl)amino]propan-1-ol]	> 20 µM
OCC[C@H](NCc1ccnc(-c2ccc(C(F)(F)F)cc2)n1)c1ccccc1 [Example 163, (3S)-3-phenyl-3-[({2-[4-(trifluoromethyl)phenyl]pyrimidin-4-yl}methyl)amino]propan-1-ol]	> 20 µM
